Reference: ChEMBL document CHEMBL4024727, “Synthesis and antimycobacterial screening of new thiazolyl-oxazole derivatives” (Eur J Med Chem, 2017)
≈ marks a conversion by molar mass, not a printed value.

Tested on: Bacillus subtilis
Assay: Growth inhibition of Bacillus subtilis NCIM 2162 at 1 ug/ml measured after 12 hrs relative to control
Type: functional
Conditions: NCIM 2162, 12 h, read-out: GI

| Compound | inhibition of growth at 1 µg/mL |
| --- | --- |
| Cc1nc(-c2ccc(F)cc2)oc1-c1csc(-c2ccc(Cl)cc2)n1 | 4.2% |
| Cc1ccc(-c2nc(-c3oc(-c4ccc(F)cc4)nc3C)cs2)cc1 | 7.61% |
| CC1(C)S[C@@H]2[C@H](NC(=O)[C@H](N)c3ccccc3)C(=O)N2[C@H]1C(=O)O [AMPICILLIN] | 90% |

Tested on: Staphylococcus aureus
Assay: Growth inhibition of Staphylococcus aureus NCIM 2602 at 30 ug/ml measured after 12 hrs relative to control
Type: functional
Conditions: NCIM 2602, 12 h, read-out: GI

| Compound | inhibition of growth at 30 µg/mL |
| --- | --- |
| Cc1nc(-c2ccc(F)cc2)oc1-c1csc(-c2ccc(Cl)cc2)n1 | 25.8% |
| Cc1ccc(-c2nc(-c3oc(-c4ccc(F)cc4)nc3C)cs2)cc1 | 22.3% |
| CC1(C)S[C@@H]2[C@H](NC(=O)[C@H](N)c3ccccc3)C(=O)N2[C@H]1C(=O)O [AMPICILLIN] | 99.4% |

Tested on: Escherichia coli
Assay: Growth inhibition of Escherichia coli NCIM 2576 at 10 ug/ml measured after 8 hrs relative to control
Type: functional
Conditions: NCIM 2576, 8 h, read-out: GI

| Compound | inhibition of growth at 10 µg/mL |
| --- | --- |
| Cc1nc(-c2ccc(F)cc2)oc1-c1csc(-c2ccc(Cl)cc2)n1 | 10.4% |
| Cc1ccc(-c2nc(-c3oc(-c4ccc(F)cc4)nc3C)cs2)cc1 | 10.5% |
| CC1(C)S[C@@H]2[C@H](NC(=O)[C@H](N)c3ccccc3)C(=O)N2[C@H]1C(=O)O [AMPICILLIN] | 97.9% |

Tested on: Mycobacterium tuberculosis
Assay: Antitubercular activity against Mycobacterium bovis BCG ATCC 35743 dormant stage by nitrate reductase based two-fold dilution assay
Type: functional
Conditions: BCG str. ATCC 35743

| Compound | IC50 | MIC90 |
| --- | --- | --- |
| Cc1nc(-c2ccc(F)cc2)oc1-c1csc(-c2ccc(Cl)cc2)n1 | > 100 µM | > 100 µM |
| Cc1ccc(-c2nc(-c3oc(-c4ccc(F)cc4)nc3C)cs2)cc1 | > 100 µM | > 100 µM |

Tested on: Escherichia coli
Assay: Growth inhibition of Escherichia coli NCIM 2576 at 1 ug/ml measured after 8 hrs relative to control
Type: functional
Conditions: NCIM 2576, 8 h, read-out: GI

| Compound | inhibition of growth at 1 µg/mL |
| --- | --- |
| Cc1nc(-c2ccc(F)cc2)oc1-c1csc(-c2ccc(Cl)cc2)n1 | 5.86% |
| Cc1ccc(-c2nc(-c3oc(-c4ccc(F)cc4)nc3C)cs2)cc1 | 6.65% |
| CC1(C)S[C@@H]2[C@H](NC(=O)[C@H](N)c3ccccc3)C(=O)N2[C@H]1C(=O)O [AMPICILLIN] | 97.5% |

Tested on: Mycobacterium tuberculosis
Assay: Growth inhibition of Mycobacterium bovis BCG ATCC 35743 at 10 ug/ml by nitrate reductase based two-fold dilution assay relative to control
Type: functional
Conditions: BCG str. ATCC 35743, read-out: GI

| Compound | inhibition of growth at 10 µg/mL |
| --- | --- |
| Cc1nc(-c2ccc(F)cc2)oc1-c1csc(-c2ccc(Cl)cc2)n1 | 29% |
| Cc1ccc(-c2nc(-c3oc(-c4ccc(F)cc4)nc3C)cs2)cc1 | 5% |

Tested on: Mycobacterium tuberculosis
Assay: Antitubercular activity against Mycobacterium tuberculosis H37Ra ATCC 25177 dormant stage by XTT dye based two-fold dilution method
Type: functional
Conditions: not given

| Compound | IC50 | MIC90 |
| --- | --- | --- |
| Cc1nc(-c2ccc(F)cc2)oc1-c1csc(-c2ccc(Cl)cc2)n1 | > 100 µM | > 100 µM |
| Cc1ccc(-c2nc(-c3oc(-c4ccc(F)cc4)nc3C)cs2)cc1 | > 100 µM | > 100 µM |

Tested on: Escherichia coli
Assay: Growth inhibition of Escherichia coli NCIM 2576 at 30 ug/ml measured after 8 hrs relative to control
Type: functional
Conditions: NCIM 2576, 8 h, read-out: GI

| Compound | inhibition of growth at 30 µg/mL |
| --- | --- |
| Cc1nc(-c2ccc(F)cc2)oc1-c1csc(-c2ccc(Cl)cc2)n1 | 24.9% |
| Cc1ccc(-c2nc(-c3oc(-c4ccc(F)cc4)nc3C)cs2)cc1 | 23.7% |
| CC1(C)S[C@@H]2[C@H](NC(=O)[C@H](N)c3ccccc3)C(=O)N2[C@H]1C(=O)O [AMPICILLIN] | 100% |

Tested on: Mycobacterium tuberculosis
Assay: Growth inhibition of Mycobacterium bovis BCG ATCC 35743 at 30 ug/ml by nitrate reductase based two-fold dilution assay relative to control
Type: functional
Conditions: BCG str. ATCC 35743, read-out: GI

| Compound | inhibition of growth at 30 µg/mL |
| --- | --- |
| Cc1nc(-c2ccc(F)cc2)oc1-c1csc(-c2ccc(Cl)cc2)n1 | 33% |
| Cc1ccc(-c2nc(-c3oc(-c4ccc(F)cc4)nc3C)cs2)cc1 | 5% |

Tested on: Mycobacterium tuberculosis
Assay: Growth inhibition of Mycobacterium bovis BCG ATCC 35743 at 1 ug/ml by nitrate reductase based two-fold dilution assay relative to control
Type: functional
Conditions: BCG str. ATCC 35743, read-out: GI

| Compound | inhibition of growth at 1 µg/mL |
| --- | --- |
| Cc1nc(-c2ccc(F)cc2)oc1-c1csc(-c2ccc(Cl)cc2)n1 | 25% |
| Cc1ccc(-c2nc(-c3oc(-c4ccc(F)cc4)nc3C)cs2)cc1 | 3% |

Tested on: Bacillus subtilis
Assay: Growth inhibition of Bacillus subtilis NCIM 2162 at 30 ug/ml measured after 12 hrs relative to control
Type: functional
Conditions: NCIM 2162, 12 h, read-out: GI

| Compound | inhibition of growth at 30 µg/mL |
| --- | --- |
| Cc1nc(-c2ccc(F)cc2)oc1-c1csc(-c2ccc(Cl)cc2)n1 | 20.5% |
| Cc1ccc(-c2nc(-c3oc(-c4ccc(F)cc4)nc3C)cs2)cc1 | 22% |
| CC1(C)S[C@@H]2[C@H](NC(=O)[C@H](N)c3ccccc3)C(=O)N2[C@H]1C(=O)O [AMPICILLIN] | 96.8% |

Tested on: Bacillus subtilis
Assay: Antibacterial activity against Bacillus subtilis NCIM 2162 measured after 12 hrs
Type: functional
Conditions: NCIM 2162, 12 h

| Compound | MIC |
| --- | --- |
| Cc1nc(-c2ccc(F)cc2)oc1-c1csc(-c2ccc(Cl)cc2)n1 | > 100 µM |
| Cc1ccc(-c2nc(-c3oc(-c4ccc(F)cc4)nc3C)cs2)cc1 | > 100 µM |
| CC1(C)S[C@@H]2[C@H](NC(=O)[C@H](N)c3ccccc3)C(=O)N2[C@H]1C(=O)O [AMPICILLIN] | 29.2 µM (≈ 10.2 µg/mL) |

Tested on: Staphylococcus aureus
Assay: Growth inhibition of Staphylococcus aureus NCIM 2602 at 10 ug/ml measured after 12 hrs relative to control
Type: functional
Conditions: NCIM 2602, 12 h, read-out: GI

| Compound | inhibition of growth at 10 µg/mL |
| --- | --- |
| Cc1nc(-c2ccc(F)cc2)oc1-c1csc(-c2ccc(Cl)cc2)n1 | 19.5% |
| Cc1ccc(-c2nc(-c3oc(-c4ccc(F)cc4)nc3C)cs2)cc1 | 12.8% |
| CC1(C)S[C@@H]2[C@H](NC(=O)[C@H](N)c3ccccc3)C(=O)N2[C@H]1C(=O)O [AMPICILLIN] | 98.9% |

Tested on: Escherichia coli
Assay: Antibacterial activity against Escherichia coli NCIM 2576 measured after 8 hrs
Type: functional
Conditions: NCIM 2576, 8 h

| Compound | MIC |
| --- | --- |
| Cc1nc(-c2ccc(F)cc2)oc1-c1csc(-c2ccc(Cl)cc2)n1 | > 100 µM |
| Cc1ccc(-c2nc(-c3oc(-c4ccc(F)cc4)nc3C)cs2)cc1 | > 100 µM |
| CC1(C)S[C@@H]2[C@H](NC(=O)[C@H](N)c3ccccc3)C(=O)N2[C@H]1C(=O)O [AMPICILLIN] | 4.18 µM (≈ 1.46 µg/mL) |

Tested on: Staphylococcus aureus
Assay: Antibacterial activity against Staphylococcus aureus NCIM 2602 measured after 12 hrs
Type: functional
Conditions: NCIM 2602, 12 h

| Compound | MIC |
| --- | --- |
| Cc1nc(-c2ccc(F)cc2)oc1-c1csc(-c2ccc(Cl)cc2)n1 | > 100 µM |
| Cc1ccc(-c2nc(-c3oc(-c4ccc(F)cc4)nc3C)cs2)cc1 | > 100 µM |
| CC1(C)S[C@@H]2[C@H](NC(=O)[C@H](N)c3ccccc3)C(=O)N2[C@H]1C(=O)O [AMPICILLIN] | 2.86 µM (≈ 0.999 µg/mL) |

Tested on: Mycobacterium tuberculosis
Assay: Growth inhibition of Mycobacterium tuberculosis H37Ra ATCC 25177 at 3 ug/ml by XTT dye based two-fold dilution method relative to control
Type: functional
Conditions: read-out: GI

| Compound | inhibition of growth at 3 µg/mL |
| --- | --- |
| Cc1nc(-c2ccc(F)cc2)oc1-c1csc(-c2ccc(Cl)cc2)n1 | 3% |

Tested on: Mycobacterium tuberculosis
Assay: Growth inhibition of Mycobacterium tuberculosis H37Ra ATCC 25177 at 30 ug/ml by XTT dye based two-fold dilution method relative to control
Type: functional
Conditions: read-out: GI

| Compound | inhibition of growth at 30 µg/mL |
| --- | --- |
| Cc1nc(-c2ccc(F)cc2)oc1-c1csc(-c2ccc(Cl)cc2)n1 | 13% |
| Cc1ccc(-c2nc(-c3oc(-c4ccc(F)cc4)nc3C)cs2)cc1 | 5% |

Tested on: Staphylococcus aureus
Assay: Growth inhibition of Staphylococcus aureus NCIM 2602 at 1 ug/ml measured after 12 hrs relative to control
Type: functional
Conditions: NCIM 2602, 12 h, read-out: GI

| Compound | inhibition of growth at 1 µg/mL |
| --- | --- |
| Cc1nc(-c2ccc(F)cc2)oc1-c1csc(-c2ccc(Cl)cc2)n1 | 8.6% |
| Cc1ccc(-c2nc(-c3oc(-c4ccc(F)cc4)nc3C)cs2)cc1 | 6.75% |
| CC1(C)S[C@@H]2[C@H](NC(=O)[C@H](N)c3ccccc3)C(=O)N2[C@H]1C(=O)O [AMPICILLIN] | 98.2% |

Tested on: Mycobacterium tuberculosis
Assay: Growth inhibition of Mycobacterium tuberculosis H37Ra ATCC 25177 at 10 ug/ml by XTT dye based two-fold dilution method relative to control
Type: functional
Conditions: read-out: GI

| Compound | inhibition of growth at 10 µg/mL |
| --- | --- |
| Cc1nc(-c2ccc(F)cc2)oc1-c1csc(-c2ccc(Cl)cc2)n1 | 4% |
| Cc1ccc(-c2nc(-c3oc(-c4ccc(F)cc4)nc3C)cs2)cc1 | 3% |

Tested on: Pseudomonas fluorescens
Assay: Antibacterial activity against Pseudomonas fluorescens NCIM 2059 measured after 8 hrs
Type: functional
Conditions: NCIM 2059, 8 h

| Compound | MIC |
| --- | --- |
| Cc1nc(-c2ccc(F)cc2)oc1-c1csc(-c2ccc(Cl)cc2)n1 | > 100 µM |
| Cc1ccc(-c2nc(-c3oc(-c4ccc(F)cc4)nc3C)cs2)cc1 | > 100 µM |
| CC1(C)S[C@@H]2[C@H](NC(=O)[C@H](N)c3ccccc3)C(=O)N2[C@H]1C(=O)O [AMPICILLIN] | 12.5 µM (≈ 4.36 µg/mL) |

Tested on: Bacillus subtilis
Assay: Growth inhibition of Bacillus subtilis NCIM 2162 at 10 ug/ml measured after 12 hrs relative to control
Type: functional
Conditions: NCIM 2162, 12 h, read-out: GI

| Compound | inhibition of growth at 10 µg/mL |
| --- | --- |
| Cc1nc(-c2ccc(F)cc2)oc1-c1csc(-c2ccc(Cl)cc2)n1 | 12.9% |
| Cc1ccc(-c2nc(-c3oc(-c4ccc(F)cc4)nc3C)cs2)cc1 | 10.7% |
| CC1(C)S[C@@H]2[C@H](NC(=O)[C@H](N)c3ccccc3)C(=O)N2[C@H]1C(=O)O [AMPICILLIN] | 94.5% |

Tested on: Pseudomonas fluorescens
Assay: Growth inhibition of Pseudomonas fluorescens NCIM 2059 at 10 ug/ml measured after 8 hrs relative to control
Type: functional
Conditions: NCIM 2059, 8 h, read-out: GI

| Compound | inhibition of growth at 10 µg/mL |
| --- | --- |
| Cc1nc(-c2ccc(F)cc2)oc1-c1csc(-c2ccc(Cl)cc2)n1 | 20.7% |
| Cc1ccc(-c2nc(-c3oc(-c4ccc(F)cc4)nc3C)cs2)cc1 | 10.4% |
| CC1(C)S[C@@H]2[C@H](NC(=O)[C@H](N)c3ccccc3)C(=O)N2[C@H]1C(=O)O [AMPICILLIN] | 97.7% |

Tested on: Pseudomonas fluorescens
Assay: Growth inhibition of Pseudomonas fluorescens NCIM 2059 at 30 ug/ml measured after 8 hrs relative to control
Type: functional
Conditions: NCIM 2059, 8 h, read-out: GI

| Compound | inhibition of growth at 30 µg/mL |
| --- | --- |
| Cc1nc(-c2ccc(F)cc2)oc1-c1csc(-c2ccc(Cl)cc2)n1 | 21.5% |
| Cc1ccc(-c2nc(-c3oc(-c4ccc(F)cc4)nc3C)cs2)cc1 | 20.6% |
| CC1(C)S[C@@H]2[C@H](NC(=O)[C@H](N)c3ccccc3)C(=O)N2[C@H]1C(=O)O [AMPICILLIN] | 98.8% |

Tested on: Pseudomonas fluorescens
Assay: Growth inhibition of Pseudomonas fluorescens NCIM 2059 at 1 ug/ml measured after 8 hrs relative to control
Type: functional
Conditions: NCIM 2059, 8 h, read-out: GI

| Compound | inhibition of growth at 1 µg/mL |
| --- | --- |
| Cc1nc(-c2ccc(F)cc2)oc1-c1csc(-c2ccc(Cl)cc2)n1 | 0.52% |
| Cc1ccc(-c2nc(-c3oc(-c4ccc(F)cc4)nc3C)cs2)cc1 | 2.41% |
| CC1(C)S[C@@H]2[C@H](NC(=O)[C@H](N)c3ccccc3)C(=O)N2[C@H]1C(=O)O [AMPICILLIN] | 96.4% |
